Experimental data from US11214803B2, “Modulators of YAP1 expression” (Ionis Pharmaceuticals, Inc., priority 2019, dated 2022).
Marks after values point to notes of the source that are not given here. Strand notation (5' to 3'): a small letter for the sugar, then the base; units joined by * are phosphorothioate-linked, units joined directly phosphodiester-linked; [ ] holds rarer units or linkages, { } end groups; capitals alone tell only the bases. k = constrained ethyl (cEt); [5mC] = 5-methylcytosine; d = 2'-deoxy (DNA)

tested on: Yap1 mRNA; assay: Antisense inhibition of human Yap1 in A-431 cells by cEt gapmers, single dose (Example 3, RTS36584); assay type: cell-based; settings: Table 8; A-431 cells, 5,000 cells per well, free uptake, 2,000 nM, approximately 48 hours; RTS36584; normalized to RIBOGREEN; Yap1 mRNA relative to untreated control cells
Method in brief: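 Single-dose free-uptake screen of 3-10-3 cEt gapmers in A-431 cells at 2,000 nM over about 48 h. Values are % untreated control Yap1 mRNA.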

Substance	YAP1 (% UTC)
958359 (antisense kT*kG*k[5mC]*dA*dT*d[5mC]*dA*dG*dT*dA*d[5mC]*dT*dG*kG*k[5mC]*k[5mC]) [Compound 958359]	117
958415 (antisense k[5mC]*kT*kG*dT*dG*dT*dA*dG*dG*d[5mC]*dT*dG*dA*k[5mC]*kT*kT) [Compound 958415]	16
958401 (antisense kA*kG*kT*dT*dA*dT*dT*d[5mC]*dA*dG*d[5mC]*dA*dG*k[5mC]*kT*kT) [Compound 958401]	19

same assay, conditions: Table 9; A-431 cells, 5,000 cells per well, free uptake, 2,000 nM, approximately 48 hours; RTS36584; normalized to RIBOGREEN; Yap1 mRNA relative to untreated control cells

Substance	YAP1 (% UTC)
958596 (kA*kG*k[5mC]*dA*dG*dT*dT*dA*dA*dG*d[5mC]*dA*d[5mC]*kT*kT*kT; antisense) [Compound 958596]	3
958721 (antisense kG*kT*kA*dG*dT*dA*dT*dA*dA*dT*dG*dA*dG*kT*kT*kA) [Compound 958721]	1
958581 (k[5mC]*kT*kG*d[5mC]*dT*dG*dA*dT*dA*dT*dA*dT*dA*kA*kG*kA; antisense) [Compound 958581]	26
958551 (k[5mC]*kT*k[5mC]*d[5mC]*dT*dG*dT*dA*dG*dA*d[5mC]*dA*d[5mC]*kA*kT*kA; antisense) [Compound 958551]	5

same assay, conditions: Table 10; A-431 cells, 5,000 cells per well, free uptake, 2,000 nM oligonucleotide, approx. 48 hours; primer probe set RTS36584; Yap1 mRNA normalized to RIBOGREEN, percent of untreated control

Substance	YAP1 (% UTC)
958792 (antisense kG*k[5mC]*k[5mC]*dA*dA*dT*dG*dG*dA*dG*dT*d[5mC]*dA*k[5mC]*k[5mC]*kA) [Compound 958792]	46
958742 (antisense kA*kG*k[5mC]*dA*dA*dT*dA*dT*dG*dG*dT*dA*dT*kT*kA*kG) [Compound 958742]	4
958692 (antisense kG*kG*k[5mC]*dT*dA*dG*dA*dG*dG*d[5mC]*d[5mC]*dG*dG*kG*kT*kG) [Compound 958692]	105
958732 (antisense kA*kG*k[5mC]*dA*d[5mC]*dG*dG*dT*dG*dT*dA*dG*d[5mC]*kT*kT*kT) [Compound 958732]	60
958727 (antisense kA*kT*k[5mC]*dT*dG*dT*d[5mC]*dA*dG*dT*dT*dA*dT*k[5mC]*k[5mC]*kT) [Compound 958727]	2

same assay, conditions: Table 11; A-431 cells, 5,000 cells per well, free uptake, 2,000 nM oligonucleotide, approx. 48 hours; primer probe set RTS36584; Yap1 mRNA normalized to RIBOGREEN, percent of untreated control

Substance	YAP1 (% UTC)
958778 (antisense kG*k[5mC]*kT*dA*d[5mC]*d[5mC]*dT*dG*dG*dA*dG*d[5mC]*dG*kA*kA*kG) [Compound 958778]	75
958798 (antisense kT*kG*k[5mC]*dA*dG*dT*dA*dT*dA*dA*dT*dA*dT*k[5mC]*k[5mC]*kT) [Compound 958798]	3
958743 (antisense kG*kA*k[5mC]*dT*dA*dT*dA*dA*dA*dG*dG*dG*dT*kT*kT*kA) [Compound 958743]	30
958638 (antisense kG*kT*kG*d[5mC]*dG*dG*dA*dG*d[5mC]*dG*d[5mC]*dG*d[5mC]*kG*kG*kA) [Compound 958638]	127

same assay, conditions: Table 12; A-431 cells, 5,000 cells per well, free uptake, 2,000 nM modified oligonucleotide, approx. 48 hours; RTS36584; normalized to RIBOGREEN; Yap1 mRNA relative to untreated control cells

Substance	YAP1 (% UTC)
958514 (kT*kA*k[5mC]*dT*dA*dG*dT*d[5mC]*dA*dT*dG*dT*dA*kT*kT*k[5mC]; antisense) [Compound 958514]	20 % UTC
958684 (kG*k[5mC]*kT*dG*dA*dA*dG*dA*d[5mC]*dG*dG*d[5mC]*d[5mC]*k[5mC]*kT*kT; antisense) [Compound 958684]	70 % UTC
958584 (k[5mC]*k[5mC]*k[5mC]*dT*dA*dA*dG*d[5mC]*dT*dA*dA*dA*dG*k[5mC]*kT*kA; antisense) [Compound 958584]	74 % UTC
958464 (antisense kG*k[5mC]*kT*d[5mC]*dA*dT*dG*d[5mC]*dT*dT*dA*dG*dT*k[5mC]*k[5mC]*kA) [Compound 958464]	3* % UTC
958509 (kA*kT*kG*dT*dT*dA*dT*dG*dT*dT*dT*dG*dG*kG*kT*kG; antisense) [Compound 958509]	4 % UTC
958559 (kA*kA*kT*dT*d[5mC]*dA*d[5mC]*dA*dA*d[5mC]*d[5mC]*dA*dA*k[5mC]*kT*kA; antisense) [Compound 958559]	17 % UTC
958694 (antisense kA*kT*kT*dG*dG*dT*dG*dG*dT*dG*dT*d[5mC]*dT*k[5mC]*kA*k[5mC]) [Compound 958694]	41 % UTC

same assay, conditions: Table 13; A-431 cells, 5,000 cells per well, free uptake, 2,000 nM modified oligonucleotide, approx. 48 hours; RTS36584; normalized to RIBOGREEN; Yap1 mRNA relative to untreated control cells

Substance	YAP1 (% UTC)
958660 (k[5mC]*k[5mC]*k[5mC]*dA*d[5mC]*dT*dG*dG*dG*dT*dT*dT*dG*kT*k[5mC]*k[5mC]; antisense) [Compound 958660]	106
958490 (kG*kT*kG*dA*d[5mC]*dA*dT*dG*dA*dA*dG*d[5mC]*dA*kT*k[5mC]*kT; antisense) [Compound 958490]	5
958445 (antisense kG*kG*k[5mC]*dT*dA*d[5mC]*dG*d[5mC]*d[5mC]*d[5mC]*dG*dG*dA*k[5mC]*kG*k[5mC]) [Compound 958445]	63

same assay, conditions: Table 26; Yap1 mRNA by 3-10-3 cEt gapmers targeting SEQ ID NO.: 1, and 2; percent of untreated control

Substance	YAP1 (% UTC)
1075436 (antisense k[5mC]*k[5mC]*kT*dT*dA*dA*dA*d[5mC]*dG*dA*dT*dA*dA*kA*kG*kT) [compound 1075436]	89
1076076 (kT*kA*kT*d[5mC]*dA*dA*dT*dA*d[5mC]*dT*dT*dT*dA*kG*kT*k[5mC]; antisense) [compound 1076076]	57
1074732 (k[5mC]*k[5mC]*kA*dG*dG*dT*dA*dT*d[5mC]*dA*d[5mC]*dA*dG*kT*kA*k[5mC]; antisense) [compound 1074732]	30
1075020 (antisense kT*kT*kA*dA*dT*dT*dA*dG*d[5mC]*dA*dT*dT*dA*kG*kA*kG) [compound 1075020]	30

same assay, conditions: Table 27; Yap1 mRNA by 3-10-3 cEt gapmers targeting SEQ ID NO.: 1, and 2; percent of untreated control

Substance	YAP1 (% UTC)
1075213 (kA*k[5mC]*kA*dA*dT*dA*dA*dA*dG*dG*dG*dT*d[5mC]*k[5mC]*kT*kA; antisense) [compound 1075213]	33
1075245 (k[5mC]*k[5mC]*kT*dA*dA*dT*dA*dT*dG*d[5mC]*dT*dA*dT*kT*kG*kT; antisense) [compound 1075245]	34
1076205 (kT*kA*kG*dT*dA*dT*dA*dA*dT*dT*d[5mC]*dA*dT*kG*kA*k[5mC]; antisense) [compound 1076205]	51

same assay, conditions: Table 28; Yap1 mRNA as percent of untreated control; 3-10-3 cEt gapmers targeting SEQ ID NO.: 1, and 2

Substance	YAP1 (% UTC)
1074510 (kA*kT*kA*d[5mC]*dA*dT*dT*d[5mC]*d[5mC]*dA*d[5mC]*dT*dA*k[5mC]*k[5mC]*kA; antisense) [compound 1074510]	10

same assay, conditions: Table 29; Yap1 mRNA as percent of untreated control; 3-10-3 cEt gapmers targeting SEQ ID NO.: 1, and 2

Substance	YAP1 (% UTC)
1075599 (antisense kA*k[5mC]*k[5mC]*d[5mC]*dT*dA*dT*dA*dG*d[5mC]*dT*dT*dT*kA*kG*kG) [compound 1075599]	90
1074863 (kA*kT*kA*dT*dG*dA*dG*d[5mC]*dA*dT*dG*d[5mC]*dT*k[5mC]*kT*kT; antisense) [compound 1074863]	41
1075183 (kA*kT*kT*dA*d[5mC]*dT*dA*dA*dG*dA*d[5mC]*dA*dG*kT*kG*kG; antisense) [compound 1075183]	15
1075407 (antisense kG*kA*kA*d[5mC]*dT*dA*dT*dA*dT*dA*dA*d[5mC]*d[5mC]*kT*kG*kA) [compound 1075407]	32
1074767 (kT*kT*kA*dT*d[5mC]*d[5mC]*d[5mC]*dA*dA*dT*dG*d[5mC]*dT*kA*k[5mC]*k[5mC]; antisense) [compound 1074767]	12

same assay, conditions: Table 34; Yap1 mRNA as percent of untreated control; 3-10-3 cEt gapmers targeting SEQ ID NO: 1 and 2; single dose

Substance	YAP1 (% UTC)
1075188 (kA*kG*kT*d[5mC]*dA*dA*d[5mC]*d[5mC]*dT*dG*dT*dA*dA*kT*kT*kA; antisense) [compound 1075188]	14
1076308 (kA*kG*kT*dA*dA*dT*dT*dA*d[5mC]*d[5mC]*dT*d[5mC]*dT*kA*kA*kT; antisense) [compound 1076308]	32
1074804 (kT*kA*kG*d[5mC]*dA*dA*dA*dG*dT*d[5mC]*dA*d[5mC]*dT*kT*k[5mC]*k[5mC]; antisense) [compound 1074804]	15
1074644 (antisense kA*kT*kT*dG*dA*dA*dG*dG*dG*d[5mC]*d[5mC]*dA*dA*kA*kA*kT) [compound 1074644]	93

same assay, conditions: Table 35; Yap1 mRNA as percent of untreated control; 3-10-3 cEt gapmers targeting SEQ ID NO: 1 and 2; single dose

Substance	YAP1 (% UTC)
1074325 (antisense k[5mC]*kG*k[5mC]*dA*dG*dG*dG*d[5mC]*dT*dA*dA*d[5mC]*dT*k[5mC]*k[5mC]*kT) [compound 1074325]	42
1074773 (k[5mC]*kA*kG*dT*dT*dA*dA*dA*dA*dT*d[5mC]*dT*dT*kA*kT*k[5mC]; antisense) [compound 1074773]	94
1075733 (k[5mC]*kA*kA*dT*dA*dA*d[5mC]*d[5mC]*dT*d[5mC]*dG*dA*dG*kT*kG*k[5mC]; antisense) [compound 1075733]	28
